Test results taken from patent US20220313780A1, “METHODS AND COMPOSITIONS FOR TREATING INFLAMMATORY CONDITIONS” (THE SCRIPPS RESEARCH INSTITUTE, priority 2019, published 2022).
No end group written: not given here.

System: caspase 1
Test: Caspase 1 activity assay in PMA-differentiated THP1 cells treated with LPS and ATP
Type: cell-based, human
Conditions: for anti-inflammatory activities relative to that of TR47: summary statement on exemplified TR47 fragments and variants
Description: THP1-null (THP1) cells were plated at a final concentration of 1×10^6/mL in 96 well plates and incubated with PMA (0.5 μM) for 3 hours 37° C. in supplemented RPMI. Media was subsequently changed every 24 hours for 3 days. Various subsets of wells were selected and cells were treated for 60 minutes at 37° C. in serum-free RPMI with: (A) APC (4 μg/mL), TR47 (50 μM-2 nM), scrTR47 (50 μM), SFLLRN (50 μM), TFLLRN (50 μM); (B) P3R (50 μM-500 nM), P3K (50 μM); (C) APC (4 or 1 μg/mL), TR47 (8 nM), P3R (500 nM) or TR47+P3R (8 nM and 500 nM, respectively); (D) TR47 (0-128 nM) (●)±P3R (500 nM) (□); (E) P3R (0-500 nM) (●)±TR47 (1 nM) (□). Following DPBS wash, cells were incubated with LPS (1 μg/mL) for 3 hours at 37° C. in serum-free RPMI. After a DPBS wash, cells were incubated with ATP (5 mM) in the presence or absence of 10 μM YVAD (caspase 1 inhibitor) or 2.5 μM ZVAD (pan-caspase inhibitor) for 45 minutes at 37° C., prior to performing the caspase 1 activity assay following manufacturer's directions measuring luminescence (relative luminescent units, RLU). (D & E) Experimental caspase 1 activity was normalized to YVAD (caspase 1 inhibitor) luminescence units. (A-E) Data points represent mean±S.D. of at least 3 independent experiments. *P<0.05 (vs. LPS+ATP); #P<0.05 (vs. LPS+ATP & APC, TR47 or P3R); **P<0.005 (vs. LPS+ATP & TR47+500 nM P3R); n.s. not significant.
THP1 cells were plated at a final concentration of 1×10^6/mL in 96 well plates and incubated with PMA (0.5 μM) for 3 hours 37° C. in supplemented RPMI. Media was subsequently changed every 24 hours for 3 days. Selected wells were treated with APC (4 μg/mL), (A) 50 μM or (B) 2 μM of P3R, P3Rm, P3R 51-65, P3R 51-59, P3R 54-59 or P3R 59-65 for 1 hour, washed with DPBS, and incubated with LPS (1 μg/mL) for 3 hours at 37° C. in serum-free RPMI. Cells were washed with DPBS and incubated with ATP (5 mM) in the presence or absence of 10 μM YVAD (caspase 1 inhibitor; C1i) or 2.5 μM ZVAD (pan-caspase inhibitor; pCi) for 45 minutes at 37° C., prior to performing the caspase 1 activity assay following manufacturer's directions measuring luminescence (relative luminescent units, RLU). (C) Diagram showing the PAR3 sequence, peptide sequences and relative (anti-inflammatory) activity. These include sequences of P3R (SEQ ID NO:4), P3Rm (SEQ ID NO:8), P3R 51-65 (SEQ ID NO:9), P3R 51-59 (SEQ ID NO:10), P3R 54-59 (SEQ ID NO:54) and P3R 59-65 (SEQ ID NO:55).
THP1 cells were plated at a final concentration of 1×10^6/mL in 96 well plates and incubated with PMA (0.5 μM) for 3 hours 37° C. in supplemented RPMI. Media was subsequently changed every 24 hours for 3 days. Selected wells were treated with APC (4 μg/mL), TR47, in (A) 9-mer (TR47 9-mer; NPNDKYEPF (SEQ ID NO:36)) or Ac-TR47 (Acylated TR47) at either 50 μM or 10 nM or (B) 50 μM of 16-mer-TR47, 8-mer-TR47, 6-mer-TR47, TR47 N−1, TR47 N−2, TR47 N−5, TR47AQ, TR47AD, TR47AA or TR48-54 for 1 hour, washed with DPBS, and incubated with LPS (1 μg/mL) for 3 hours at 37° C. in serum-free RPMI. Cells were washed with DPBS and incubated with ATP (5 mM) in the presence or absence of 10 μM YVAD (caspase 1 inhibitor; C1i) or 2.5 μM ZVAD (pan-caspase inhibitor; pCi) for 45 minutes at 37° C., prior to performing the caspase 1 activity assay following manufacturer's directions measuring luminescence (relative luminescent units, RLU). #P<0.001 (vs. LPS+ATP), **P<0.005 (vs. LPS+ATP), * (P<0.05 vs. LPS+ATP). (C) Diagram showing the PAR1 sequence, peptide sequences and relative (anti-inflammatory) activity. These include sequences of TR47 (SEQ ID NO:7), Ac-TR47 (SEQ ID NO:56), 16-mer-TR47 (SEQ ID NO:43), 9-mer-TR47 (SEQ ID NO:36), 8-mer-TR47 (SEQ ID NO:35), 6-mer-TR47 (SEQ ID NO:33), TR47 N−1 (SEQ ID NO:47), TR47 N−2 (SEQ ID NO:51), TR47 N−5 (SEQ ID NO:48), TR47AQ (SEQ ID NO:49), TR47AD (SEQ ID NO:52), TR47AA (SEQ ID NO:50) and TR48-54 (SEQ ID NO:53). […]

[1] = peptide 50 μM for 60 min before LPS (1 μg/mL) and ATP (5 mM), THP1 cells

Compound | caspase 1 activity [1] | anti-inflammatory activities relative to that of TR47 | also measured
PNDKYEPFWEDEEKNESGL [TR47 N−1] | still reduced caspase 1 activity | maintain substantial anti-inflammatory activities relative to that of TR47 | synergistic anti-inflammatory activity (caspase 1 activity) (TR47(N−1) (0 or 4 nM) combined with 500 nM P3R, FIG. 6B): synergy observed
APNDKYEPFWEDEEKNESGL [TR47ΔA] | similarly reduced caspase 1 activity | maintain substantial anti-inflammatory activities relative to that of TR47 | 
NPNDKY [6-mer TR47] | lost its inhibitory activity |  | 
FPFSALEGWTGATIT [P3R 51-65] |  |  | caspase-1 activity (PAR3 peptide 0 to 16 nM in the presence or absence of 1 nM P1(47-66)): only in the presence of 1 nM P1(47-66) was a significant reduction in caspase-1 activity seen; caspase 1 activity (peptide 50 μM for 60 min before LPS (1 μg/mL) and ATP (5 mM), THP1 cells, listed as P3(51-65)): alone is anti-inflammatory at relatively high concentrations; anti-inflammatory effect (caspase-1 activity) (peptide at 200 nM): neither the isolated PAR1-derived peptide nor the isolated PAR3-derived peptide had an any anti-inflammatory effect
CC(C)(O)c1coc(S(=O)(=O)NC(=O)Nc2c3c(cc4c2CCC4)CCC3)c1 [MCC950, reference compound] |  |  | caspase 1 activity (NLRP3 inhibitor MCC950 10 μM for 30 minutes after LPS, THP1-null cells treated with APC, TR47 or P3R): a significant reduction in caspase 1 activity across all treatments tested
TR48-54: truncated TR-peptide, removing one amino acid from the N-terminus and part of the C-terminus (FEEFPFS; UniProt O00254 48-54, looked up, fragment) | did not reduce caspase 1 activity |  | 
GAPPNSFEEFPFS [P3Rm] | a significant reduction in caspase 1 activity was observed |  | synergistic anti-inflammatory activity (caspase 1 activity) (P3Rm (0 or 16 nM) combined with TR47 (1 nM), FIG. 6A): synergy observed; caspase 1 activity (peptide 2 μM for 1 hour before LPS and ATP, THP1 cells): this effect was lost
NDKYEPFWEDEEKNESGL [TR47 N−2] | a loss in inhibition of caspase 1 activity |  | 
P3R 59-65: fragment of PAR3-derived peptide P3R, residues 59-65 (WTGATIT; UniProt O00254 59-65, looked up, fragment) | only partially reduced caspase 1 activity |  | 
YEPFWEDEEKNESGL [TR47 N−5] | a reduction in caspase 1 activity was observed | maintain substantial anti-inflammatory activities relative to that of TR47 | 
NPNDKYEPF [9-mer] | reduced caspase 1 activity similar to the 20-mer TR47 | maintain substantive anti-inflammatory activities relative to that of TR47 | anti-inflammatory effect (caspase-1 activity) (peptide at 200 nM): neither the isolated PAR1-derived peptide nor the isolated PAR3-derived peptide had an any anti-inflammatory effect; anti-inflammatory effect (caspase-1 activity) (peptide at 500 nM): alone was anti-inflammatory
NPNDKYEP [8-mer TR47] | significantly reduced caspase 1 activity | maintain substantive anti-inflammatory activities relative to that of TR47 | 
NPNDKYEPFWEDEEKN [16-mer TR47] | significantly reduced caspase 1 activity | maintain substantive anti-inflammatory activities relative to that of TR47 | 
P3R 54-59: fragment of PAR3-derived peptide P3R, residues 54-59 (SALEGW; UniProt O00254 54-59, looked up, fragment) | only partially reduced caspase 1 activity |  | 
SFLLRN [reference compound] | neither a scrambled TR47 nor the peptides, SFLLRN or TFLLRN which resemble the novel N-terminal amino acid sequence generated by thrombin's PAR1 cleavage at Arg41 had any effect on caspase 1 activity |  | 
Ac-TR47: Acylated TR47 (N-terminus of TR47 acylated) (Ac-NPNDKYEPF; also: N-terminal acylation, acyl group not given here) | no reduction in caspase 1 activity was observed |  | 
TFLLRN (SFLLRN; UniProt P25116 42-47, looked up, fragment) [reference compound] | neither a scrambled TR47 nor the peptides, SFLLRN or TFLLRN which resemble the novel N-terminal amino acid sequence generated by thrombin's PAR1 cleavage at Arg41 had any effect on caspase 1 activity |  | 
QPNDKYEPFWEDEEKNESGL [TR47ΔQ] | similarly reduced caspase 1 activity | maintain substantial anti-inflammatory activities relative to that of TR47 | 
